Measurements: PubChem BioAssay (NCI)
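1) Cells in 96-well plates. 2) Compound, 48 h, 5 concentrations. 3) Linear interpolation between surrounding doses. 4) Unreached endpoint = highest concentration. GI50: concentration for 50% inhibition of growth. TGI is the concentration that stops growth completely.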

Assays:
Test in all cases: NCI-60 cell line screen, 48 h
LOX IMVI melanoma = test system: LOX IMVI melanoma
OVCAR-4 ovarian = test system: OVCAR-4 ovarian
UO-31 renal = test system: UO-31 renal
NCI-H522 lung = test system: NCI-H522 lung
RPMI-8226 leukemia = test system: RPMI-8226 leukemia
UACC-257 melanoma = test system: UACC-257 melanoma
OVCAR-3 ovarian = test system: OVCAR-3 ovarian
K-562 leukemia = test system: K-562 leukemia
MCF7 breast = test system: MCF7 breast
M14 melanoma = test system: M14 melanoma
TK-10 renal = test system: TK-10 renal
786-0 renal = test system: 786-0 renal
HOP-62 NSCLC = test system: HOP-62 NSCLC
HT29 colon = test system: HT29 colon
CCRF-CEM leukemia = test system: CCRF-CEM leukemia
ACHN renal = test system: ACHN renal
NCI-H460 lung = test system: NCI-H460 lung
PC-3 prostate = test system: PC-3 prostate
T-47D breast = test system: T-47D breast
EKVX NSCLC = test system: EKVX NSCLC
SF-268 CNS = test system: SF-268 CNS
NCI-H23 lung = test system: NCI-H23 lung
MDA-MB-231 breast = test system: MDA-MB-231 breast
SK-OV-3 ovarian = test system: SK-OV-3 ovarian
CAKI-1 renal = test system: CAKI-1 renal
HCT-116 colon = test system: HCT-116 colon
SNB-75 CNS = test system: SNB-75 CNS
MOLT-4 leukemia = test system: MOLT-4 leukemia
HCC-2998 colon = test system: HCC-2998 colon
U251 CNS = test system: U251 CNS

O=C1Nc2cc(-c3ccc(NS(=O)(=O)c4ccc([N+](=O)[O-])cc4)cc3)ccc2/C1=C/c1ccc[nH]1
TGI (LOX IMVI melanoma): 27.2 µM | GI50 (OVCAR-4 ovarian): 10.9 µM | TGI (OVCAR-4 ovarian): 92.6 µM | GI50 (UO-31 renal): 6.74 µM | TGI (UO-31 renal): > 100 µM | GI50 (NCI-H522 lung): 6.54 µM | TGI (NCI-H522 lung): 28 µM | GI50 (RPMI-8226 leukemia): 6.15 µM | TGI (RPMI-8226 leukemia): 73.6 µM | GI50 (UACC-257 melanoma): 11.1 µM | TGI (UACC-257 melanoma): 44.3 µM | GI50 (OVCAR-3 ovarian): 13.9 µM | TGI (OVCAR-3 ovarian): 32.4 µM | GI50 (K-562 leukemia): 11.5 µM | TGI (K-562 leukemia): > 100 µM | GI50 (MCF7 breast): 1.74 µM | TGI (MCF7 breast): 14.1 µM | GI50 (M14 melanoma): 13.8 µM | TGI (M14 melanoma): 43.1 µM | GI50 (TK-10 renal): 16.4 µM | TGI (TK-10 renal): 51.3 µM | GI50 (786-0 renal): 14.4 µM | TGI (786-0 renal): 31.1 µM | GI50 (HOP-62 NSCLC): 18 µM | TGI (HOP-62 NSCLC): 44.1 µM | GI50 (HT29 colon): 14.8 µM | TGI (HT29 colon): 34 µM | GI50 (CCRF-CEM leukemia): 13.6 µM | TGI (CCRF-CEM leukemia): > 100 µM | GI50 (ACHN renal): 12.1 µM | TGI (ACHN renal): 26.9 µM | GI50 (NCI-H460 lung): 9.97 µM | TGI (NCI-H460 lung): 32.2 µM | GI50 (PC-3 prostate): 11.6 µM | TGI (PC-3 prostate): 65.2 µM | GI50 (T-47D breast): 4.77 µM | TGI (T-47D breast): > 100 µM | GI50 (EKVX NSCLC): 2.28 µM | TGI (EKVX NSCLC): 32.7 µM | GI50 (SF-268 CNS): 16.4 µM | TGI (SF-268 CNS): 80.4 µM | GI50 (NCI-H23 lung): 6.59 µM | TGI (NCI-H23 lung): 26.8 µM | GI50 (MDA-MB-231 breast): 16.8 µM | TGI (MDA-MB-231 breast): 38.6 µM | GI50 (SK-OV-3 ovarian): 18.2 µM | TGI (SK-OV-3 ovarian): 49.8 µM | GI50 (CAKI-1 renal): 14.1 µM | TGI (CAKI-1 renal): 36.6 µM | GI50 (HCT-116 colon): 13.2 µM | TGI (HCT-116 colon): 29 µM | GI50 (SNB-75 CNS): 20.4 µM | TGI (SNB-75 CNS): > 100 µM | GI50 (MOLT-4 leukemia): 8.77 µM | TGI (MOLT-4 leukemia): > 100 µM | GI50 (HCC-2998 colon): 18.6 µM | TGI (HCC-2998 colon): > 100 µM | GI50 (U251 CNS): 13.6 µM | TGI (U251 CNS): 27.3 µM
